Results: patent US20240261294A1, “METHOD FOR TREATING IDH INHIBITOR-RESISTANT SUBJECTS” (Eli Lilly and Company, priority 2021, published 2024)
Read-outs that look alike come from different tables or passages of the source.

Molecular target: T1, IDH2 R140Q_I319M cis (Homo sapiens, UniProt P48735, I319M/R140Q)
T1 construct: expressed in transfected cells; host or cells: U-87 MG
T1 sequence (P48735 40-452 R140Q/I319M): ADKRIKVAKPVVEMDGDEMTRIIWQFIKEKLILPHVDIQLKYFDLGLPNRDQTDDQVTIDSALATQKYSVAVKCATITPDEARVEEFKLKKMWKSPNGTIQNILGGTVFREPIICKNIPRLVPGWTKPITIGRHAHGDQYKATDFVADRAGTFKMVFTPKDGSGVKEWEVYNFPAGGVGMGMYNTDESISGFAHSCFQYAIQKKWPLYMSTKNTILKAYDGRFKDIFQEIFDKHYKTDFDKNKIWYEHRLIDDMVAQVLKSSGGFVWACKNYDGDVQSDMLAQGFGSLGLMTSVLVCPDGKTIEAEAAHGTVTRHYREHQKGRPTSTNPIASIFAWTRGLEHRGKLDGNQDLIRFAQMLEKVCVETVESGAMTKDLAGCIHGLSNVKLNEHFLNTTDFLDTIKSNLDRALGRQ
Test: Inhibition of 2-HG production in IDH2 mutant U-87 MG cells
Type: cell-based

`C=CC(=O)N1CCN([C@@H](CC2CC2)c2ccc([C@H](C)Nc3ncc4c(n3)N(CC)C(=O)OC4)cc2)CC1` [Compound A, 7-[[(1S)-1-[4-[(1S)-2-cyclopropyl-1-(4-prop-2-enoylpiperazin-1-yl)ethyl]phenyl]ethyl]amino]-1-ethyl-4H-pyrimido[4,5-d][1,3]oxazin-2-one] gave an IC50 (16 hours incubation, 50K cells/well, 100 μl media/well, read-out: Relative IC50 (nM) Mean, inhibition of 2-HG production) of 29 nM and an IC50 (72 hours incubation, 12.5K cells/well, 150 μl media/well, read-out: IC50, inhibition of 2-HG production) of 30.4 nM.
